{"source": "patent US20150307938A1", "about": "“METHOD TO IDENTIFY A NOVEL CLASS OF IMMUNOLOGIC ADJUVANTS” (Lancell, L.L.C., priority 2011, published 2015)", "tested_on": "skin", "test": "Affymetrix microarray of skin, DBP-4 hr and analogs vs. untreated; gene selection by log-2 fold change, Wilcoxon, Kendall tau (Tables 8, 9)", "assay_type": "in vivo, mouse", "details": "for Kendall: Kendall tau coefficient", "data": [{"smiles": "CCCCOC(=O)c1ccccc1C(=O)OCCCC", "note": "[DBP, dibutylphthalate]", "values": [{"measurement": "DBP Expression: Socs2", "setting": "NM_001168655_at, DBP-4 hr", "value": 8.92}, {"measurement": "DBP Expression: Socs2", "setting": "NM_001168656_at, DBP-4 hr", "value": 8.92}, {"measurement": "DBP Expression: Socs2", "setting": "NM_001168657_at, DBP-4 hr", "value": 8.92}, {"measurement": "DBP Expression: Arid5a", "setting": "NM_001172205_at, DBP-4 hr", "value": 7.61}, {"measurement": "DBP Expression: Arid5a", "setting": "NM_001172206_at, DBP-4 hr", "value": 7.61}, {"measurement": "DBP Expression: Nfkb2", "setting": "NM_001177369_at, DBP-4 hr", "value": 8.26}, {"measurement": "DBP Expression: Nfkb2", "setting": "NM_001177370_at, DBP-4 hr", "value": 8.26}, {"measurement": "DBP Expression: Cd44", "setting": "NM_001177785_at, DBP-4 hr", "value": 9.82}, {"measurement": "DBP Expression: Cd44", "setting": "NM_001177786_at, DBP-4 hr", "value": 9.82}, {"measurement": "DBP Expression: Cd44", "setting": "NM_001177787_at, DBP-4 hr", "value": 9.82}, {"measurement": "DBP Expression: Smox", "setting": "NM_001177833_at, DBP-4 hr", "value": 8.18}, {"measurement": "DBP Expression: Smox", "setting": "NM_001177834_at, DBP-4 hr", "value": 8.24}, {"measurement": "DBP Expression: Smox", "setting": "NM_001177835_at, DBP-4 hr", "value": 8.44}, {"measurement": "DBP Expression: Smox", "setting": "NM_001177836_at, DBP-4 hr", "value": 8.07}, {"measurement": "DBP Expression: Smox", "setting": "NM_001177837_at, DBP-4 hr", "value": 8.07}, {"measurement": "DBP Expression: Smox", "setting": "NM_001177838_at, DBP-4 hr", "value": 8.44}, {"measurement": "DBP Expression: Smox", "setting": "NM_001177839_at, DBP-4 hr", "value": 8.07}, {"measurement": "DBP Expression: Smox", "setting": "NM_001177840_at, DBP-4 hr", "value": 8.44}, {"measurement": "DBP Expression: Pde4b", "setting": "NM_001177980_at, DBP-4 hr", "value": 8.96}, {"measurement": "DBP Expression: Pde4b", "setting": "NM_001177981_at, DBP-4 hr", "value": 8.96}, {"measurement": "DBP Expression: Pde4b", "setting": "NM_001177982_at, DBP-4 hr", "value": 8.96}, {"measurement": "DBP Expression: 5730408K05Rik", "setting": "NR_027866_at, DBP-4 hr", "value": 8.14}, {"measurement": "DBP Expression: Arid5a", "setting": "NR_033310_at, DBP-4 hr", "value": 7.61}, {"measurement": "Wilcoxon", "setting": "Socs2 NM_007706_at, DBP-4 hr vs. untreated", "value": "No"}, {"measurement": "Kendall", "setting": "Socs2 NM_007706_at", "value": "No"}, {"measurement": "Wilcoxon", "setting": "Socs3 NM_007707_at, DBP-4 hr vs. untreated", "value": "Yes"}, {"measurement": "Kendall", "setting": "Socs3 NM_007707_at", "value": "No"}, {"measurement": "Wilcoxon", "setting": "Timp1 NM_001044384_at, DBP-4 hr vs. untreated", "value": "Yes"}, {"measurement": "Kendall", "setting": "Timp1 NM_001044384_at", "value": "No"}, {"measurement": "DBP Expression: LOC100504977", "setting": "XM_003085794_at, DBP-4 hr", "value": 8.47}, {"measurement": "Wilcoxon: 1810046J19Rik", "setting": "gene 1810046J19Rik, NM_025559_at, DBP-4 hr vs. untreated", "value": "No"}, {"measurement": "Kendall: 1810046J19Rik", "setting": "gene 1810046J19Rik, NM_025559_at, gene expression vs. output", "value": "Yes"}, {"measurement": "Wilcoxon: 4933434E20Rik", "setting": "gene 4933434E20Rik, NM_025762_at, DBP-4 hr vs. untreated", "value": "No"}, {"measurement": "Kendall: 4933434E20Rik", "setting": "gene 4933434E20Rik, NM_025762_at, gene expression vs. output", "value": "Yes"}, {"measurement": "Log2 Expression Level", "setting": "gene #1 of Table 8", "value": 6.82}, {"measurement": "Log2 Expression Level", "setting": "gene #2 of Table 8", "value": 6.93}, {"measurement": "Log2 Expression Level", "setting": "gene #3 of Table 8", "value": 9.82}, {"measurement": "Log2 Expression Level", "setting": "gene #4 of Table 8", "value": 9.82}, {"measurement": "Log2 Expression Level", "setting": "gene #5 of Table 8", "value": 7.53}, {"measurement": "Log2 Expression Level", "setting": "gene #6 of Table 8", "value": 6.91}, {"measurement": "Log2 Expression Level", "setting": "gene #7 of Table 8", "value": 6.26}, {"measurement": "Log2 Expression Level", "setting": "gene #8 of Table 8", "value": 6.91}, {"measurement": "Log2 Expression Level", "setting": "gene #9 of Table 8", "value": 6.91}, {"measurement": "Log2 Expression Level", "setting": "gene #10 of Table 8", "value": 6.91}, {"measurement": "Log2 Expression Level", "setting": "gene #11 of Table 8", "value": 6.26}, {"measurement": "Log2 Expression Level", "setting": "gene #12 of Table 8", "value": 6.26}, {"measurement": "Log2 Expression Level", "setting": "gene #13 of Table 8", "value": 6.26}, {"measurement": "Log2 Expression Level", "setting": "gene #14 of Table 8", "value": 6.13}, {"measurement": "Log2 Expression Level", "setting": "gene #15 of Table 8", "value": 6.13}, {"measurement": "Log2 Expression Level", "setting": "gene #16 of Table 8", "value": 7.45}, {"measurement": "Log2 Expression Level", "setting": "gene #17 of Table 8", "value": 9.48}, {"measurement": "Log2 Expression Level", "setting": "gene #18 of Table 8", "value": 9.48}, {"measurement": "Log2 Expression Level", "setting": "gene #19 of Table 8", "value": 9.61}, {"measurement": "Log2 Expression Level", "setting": "gene #20 of Table 8", "value": 11.11}, {"measurement": "Log2 Expression Level", "setting": "gene #21 of Table 8", "value": 9.27}, {"measurement": "Log2 Expression Level", "setting": "gene #22 of Table 8", "value": 8.24}, {"measurement": "Log2 Expression Level", "setting": "gene #23 of Table 8", "value": 6.89}, {"measurement": "Log2 Expression Level", "setting": "gene #24 of Table 8", "value": 8.10}, {"measurement": "Log2 Expression Level", "setting": "gene #25 of Table 8", "value": 8.10}, {"measurement": "Log2 Expression Level", "setting": "gene #26 of Table 8", "value": 8.56}, {"measurement": "Log2 Expression Level", "setting": "gene #27 of Table 8", "value": 8.56}, {"measurement": "Log2 Expression Level", "setting": "gene #28 of Table 8", "value": 8.56}, {"measurement": "Log2 Expression Level", "setting": "gene #29 of Table 8", "value": 7.22}, {"measurement": "Log2 Expression Level", "setting": "gene #30 of Table 8", "value": 8.92}, {"measurement": "Log2 Expression Level", "setting": "gene #31 of Table 8", "value": 8.92}, {"measurement": "Log2 Expression Level", "setting": "gene #32 of Table 8", "value": 8.92}, {"measurement": "Log2 Expression Level", "setting": "gene #33 of Table 8", "value": 6.54}, {"measurement": "Log2 Expression Level", "setting": "gene #34 of Table 8", "value": 7.61}, {"measurement": "Log2 Expression Level", "setting": "gene #35 of Table 8", "value": 7.61}, {"measurement": "Log2 Expression Level", "setting": "gene #36 of Table 8", "value": 9.82}, {"measurement": "Log2 Expression Level", "setting": "gene #37 of Table 8", "value": 9.82}, {"measurement": "Log2 Expression Level", "setting": "gene #38 of Table 8", "value": 9.82}, {"measurement": "Log2 Expression Level", "setting": "gene #39 of Table 8", "value": 8.18}, {"measurement": "Log2 Expression Level", "setting": "gene #40 of Table 8", "value": 8.24}, {"measurement": "Log2 Expression Level", "setting": "gene #41 of Table 8", "value": 8.44}, {"measurement": "Log2 Expression Level", "setting": "gene #42 of Table 8", "value": 8.07}, {"measurement": "Log2 Expression Level", "setting": "gene #43 of Table 8", "value": 8.07}, {"measurement": "Log2 Expression Level", "setting": "gene #44 of Table 8", "value": 8.44}, {"measurement": "Log2 Expression Level", "setting": "gene #45 of Table 8", "value": 8.07}, {"measurement": "Log2 Expression Level", "setting": "gene #46 of Table 8", "value": 8.44}, {"measurement": "Log2 Expression Level", "setting": "gene #47 of Table 8", "value": 8.96}, {"measurement": "Log2 Expression Level", "setting": "gene #48 of Table 8", "value": 8.96}, {"measurement": "Log2 Expression Level", "setting": "gene #49 of Table 8", "value": 8.96}, {"measurement": "Log2 Expression Level", "setting": "gene #50 of Table 8", "value": 10.11}, {"measurement": "Log2 Expression Level", "setting": "gene #51 of Table 8", "value": 8.84}, {"measurement": "Log2 Expression Level", "setting": "gene #52 of Table 8", "value": 10.36}, {"measurement": "Log2 Expression Level", "setting": "gene #53 of Table 8", "value": 8.58}, {"measurement": "Log2 Expression Level", "setting": "gene #54 of Table 8", "value": 10.63}, {"measurement": "Log2 Expression Level", "setting": "gene #55 of Table 8", "value": 7.56}]}]}
